We go through four compounds from BindingDB's records for doi:10.1016/0960-894X(95)00530-0 (1995).

In this assay the target is Gastrin/cholecystokinin type B receptor (Cavia porcellus). Kind of assay: Displacement of [125I]-BH CCK-8S from Cholecystokinin type B receptor in guinea pig cortex. In general terms: Displacement assays read how much labelled ligand stays bound in the presence of the test substance.
The compound `Cc1cccc(NC(=O)NC2N=C(N3CCNCC3)c3ccccc3N(C)C2=O)c1` (centres undefined) [1-(1-Methyl-2-oxo-5-piperazin-1-yl-2,3-dihydro-1H-benzo[e][1,4]diazepin-3-yl)-3-m-tolyl-urea] gave an IC50 of 880 nM. Next, `Cc1cccc(NC(=O)N[C@@H]2N=C(c3ccccc3)c3ccccc3N3C[C@H](C)N=C23)c1` [1-((2S,4R)-2-Methyl-6-phenyl-2,4-dihydro-1H-3,5,10b-triaza-benzo[e]azulen-4-yl)-3-m-tolyl-urea]: 1.8 nM. Regarding `CCCN1C(=O)C(NC(=O)Nc2cccc(C(F)(F)F)c2)N=C(N2CCN(C)CC2)c2ccccc21` (centres undefined) [1-[5-(4-Methyl-piperazin-1-yl)-2-oxo-1-propyl-2,3-dihydro-1H-benzo[e][1,4]diazepin-3-yl]-3-(3-trifluoromethyl-phenyl)-urea], the IC50 worked out at 12 nM. Next, `Cc1cccc(NC(=O)NC2N=C(N3CCN(C(=O)OC(C)(C)C)CC3)c3ccccc3N(C)C2=O)c1` (centres undefined) [4-[1-Methyl-2-oxo-3-(3-m-tolyl-ureido)-2,3-dihydro-1H-benzo[e][1,4]diazepin-5-yl]-piperazine-1-carboxylic acid tert-butyl ester]: over 3000 nM.

A word on the IC50: it is the midpoint of a concentration-inhibition curve. Low readings indicate greater potency, high ones weaker potency.
